Measurements from patent US20260355142A1, “AMORPHOUS OTE[…] COMPOSITIONS AND USES THEREOF AND DOSAGE REGIMENS FOR OTENAPROXESUL” (ANTIBE THERAPEUTICS INC., priority 2022, published 2026).
≈ marks a conversion by molar mass, not a printed value. Entries after “also recorded” stand apart in the source; their conditions may differ.

Experiments:
[1] = test system: PGE2; experiment: Pharmacodynamics in Beagle dogs, plasma PGE2; format: in vivo; details: 15 mg/kg
Protocol: (§1) The pharmacokinetics of five different formulations of otenaproxesul (formerly ATB-346) were evaluated in Beagle dogs. Five groups of dogs (n=3/group) were orally administered their assigned formulations once daily for four days. Blood samples were taken for a full 24-hour PK profile on Day 1 and on Day 4.
(§2) Group 1 was administered crystalline otenaproxesul, Group 2 was administered milled crystalline otenaproxesul, Group 3 was administered micro-milled crystalline otenaproxesul, Group 4 was administered exemplary ASD no. 1 (see Example 7A above) and Group 5 was administered exemplary ASD no. 4 (see Example 7A above). Dose administered was 15 mg/kg (human equivalent dose of 525 mg).
Pharmacodynamic assessment of TXB2 and PGE2 plasma concentrations were assessed on: • Day 1, one hour post treatment • Day 1, 12 hours post treatment • Day 4, pre-treatment • Day 4, one hour post treatment • Day 4, 12 hours post treatment.

[2] = Pharmacokinetics in Beagle dogs of five formulations (Example 15); format: in vivo; details: Day 1, 1- and 12-hour time points
Protocol: as §1, §2
Crystalline otenaproxesul was administered to dog Groups 1-3 in gelatin capsules by oral gavage. Exemplary ASD no. 1 and exemplary ASD no. 4 were administered as oral suspensions to dog Groups 4-5.

[3] = Solubility in simulated intestinal fluid; format: physicochemical; details: 0.5 wt % SIF
Source text: 1 compared to crystalline otenaproxesul in simulated intestinal fluid (SIF).

[4] = Rat pharmacokinetics of otenaproxesul amorphous dispersion (Example 19); format: in vivo, Rats; details: HED 260 mg once daily
Protocol: Rats were administered five treatment doses of the otenaproxesul amorphous solid dispersion (i.e., exemplary ASD no. 1 (35% drug: 65% polymer by weight)) and a crystalline otenaproxesul control dose. […] One group of rats was administered a human equivalent dose of 208 mg twice daily (416 mg total daily dose). Crystalline otenaproxesul was administered at the no observed adverse effect level (NOAEL) dose equivalent to a human dose of 260 mg once daily.
Pharmacokinetic data was evaluated on M25 plasma naproxen concentrations at 60 minutes post administration, Day 1 M25 plasma exposure (AUC0-24) and Day 4 M25 plasma exposure (AUC0-Last). Assessment of dose proportional characteristics for both M25 plasma concentration and AUC exposure were measured.
The human equivalent dose (HED) is related to the administered rat dose by an allometric scaling formula, for example: HED (mg)=([rat dose in mg/kg×0.16]×65 kg).

[5] = test system: ALT and/or AST; experiment: Phase 2b study, liver transaminase elevations; format: in vivo, human
Protocol: (§3) Study visits occurred on Day 1, Day 4, and Day 14 of the 14-day treatment phase and included WOMAC evaluations, blood samples for thromboxane B2 TXB2 and pharmacokinetic (PK) testing. The safety of otenaproxesul was evaluated through monitoring for adverse events (AEs), changes in physical examinations, vital signs measurements, and clinical laboratory evaluations.
(§4) All patients receiving any amount of study treatment (otenaproxesul or placebo) were included in the safety analysis. Each treatment arm was evaluated separately. In addition to the evaluation and categorization of treatment-emergent adverse events (TEAEs), listings of laboratory test results collected at Baseline and during the study were generated. Descriptive statistics summarizing the changes in those laboratory tests over time were presented.
The majority of otenaproxesul liver associated TEAEs were alanine aminotransferase (ALT) and/or aspartate aminotransferase (AST) liver transaminase elevations. None of these TEAEs were observed during the 14-day treatment period but were captured at the Day 24/Early Termination (ET) follow up assessment.

[6] = test system: ALT and AST; experiment: Analysis of liver transaminase elevations over the clinical studies; format: in vivo, human
Protocol: These LTEs were detected after the patients had completed their full treatment course.
When liver safety findings are observed, cumulative naproxen metabolite plasma drug exposure over the prescribed treatment period exceeded 4000 μg*hr/mL.

[7] = Phase 2b study, safety (treatment-emergent adverse events); format: in vivo, human; details: for hypertension or blood pressure increased: 2 patients
Protocol: as §3
Patients were followed for safety for up to 24 days following initiation of treatment. A final visit for safety assessments occurred upon study completion on Day 24 or early termination.
as §4

## COc1ccc2cc([C@H](C)C(=O)Oc3ccc(C(N)=S)cc3)ccc2c1 [crystalline otenaproxesul]
[1]; Day 1 12-hour
  PGE2 inhibition: not maintained
[1]; Day 4 pre-treatment
  PGE2 inhibition: recovered to a large extent
[2]
  lower M25 plasma concentration than the exemplary ASDs: 10 ×
[3]
  solubility at 2 h: 51 µg/mL (≈ 140 µM)
[4]; female rats
  AUC increase between Day 1 and Day 4: 60%
[4]; male rats
  AUC increase between Day 1 and Day 4: 30%

## COc1ccc2cc([C@H](C)C(=O)Oc3ccc(C(N)=S)cc3)ccc2c1 [otenaproxesul, (S)-4-carbamothioylphenyl 2-(6-methoxynaphthalen-2-yl) propanoate]
[5]; 150 mg (6/61)
  patients with treatment-related >3×ULN ALT and/or AST: 9.8%
  patients with treatment-related increases in ALT and/or AST: 9.8%
[5]; 200 mg (9/125)
  patients with treatment-related >3×ULN ALT and/or AST: 7.2%
  patients with treatment-related increases in ALT and/or AST: 7.2%
[5]; 250 mg (17/132)
  patients with treatment-related >3×ULN ALT and/or AST: 12.9%
  patients with treatment-related increases in ALT and/or AST: 12.9%
[6]; multiple dose 150, 200 or 250 mg for seven days
  adverse liver effects (transient elevations of liver transaminases): no observed adverse liver effects
[6]; multiple dose 150, 200 or 250 mg, 14 days or less
  liver transaminase elevations: not detected
[6]; over the prescribed treatment
  cumulative plasma naproxen exposure at which LTEs are not observed: ≤ 4000 µg·h/mL
[6]; over the prescribed treatment period
  cumulative naproxen plasma exposure when liver safety findings are observed: exceeded 4000 μg*hr/mL
[6]; phase 2 study
  patients with dose-related liver transaminase elevation: approximately 10%
[6]; single dose 25 mg to 2000 mg (crystalline)
  liver transaminase elevations: not detected; also recorded: no observed adverse liver effects
[7]; 150 mg
  hypertension or hypotension events: No patients
  patients with TEAEs: 37.7%
[7]; 200 mg, 1 patient
  hypotension: 0.8%
[7]; 200 mg
  hypertension or blood pressure increased: 1.6%
[7]; 250 mg
  patients with TEAEs: 43.9%
  hypertension or blood pressure increased: 1.5%
[7]; all otenaproxesul groups
  TEAE headache: 5.0%
  TEAE hepatic enzyme increased: 8.2%
  patients with at least 1 TEAE: 40.9%
[7]; all otenaproxesul groups, 14-day treatment
  gastrointestinal disorder TEAEs: 14.5%
[7]; all three doses, 14 days
  tolerability: well tolerated at all three administered doses
[7]; all three treatment arms
  discontinuation due to gastrointestinal TEAEs: none were discontinued due to TEAEs related to gastrointestinal adverse effects
[7]; one patient, 200 mg for 14 days, Day 24
  serum creatinine: 1.5 ×ULN
